# Measurements as given in article PMC3653948, “PDZ Domain-Mediated Interactions of G Protein-Coupled Receptors with Postsynaptic Density Protein 95: Quantitative Characterization of Interactions” (PLoS ONE, 2013).
# “Also recorded” adds a separate entry of the source.
# Test system: PSD-95
# Test: FP competition assay, PSD-95 PDZ domains overall (strongest binding domain / non-binders)
# Settings: FP competition with the isolated PDZ domains, peptide typically 1–512 µM
# Method: We used a competition set-up, where a constant concentration of isolated PSD-95 PDZ domain and a labeled reference ligand was titrated with unlabeled peptides from the GPCR C-tail library, typically within a 1–512 µM concentration range, and the resulting curves were fitted to obtain the IC50, which was used to calculate the K i (Figure 1). Three Cy5-labeled peptides with well-documented interactions with PSD-95 were used as reference ligands for the competition assay: Cy5-KIF1Bα was used for PDZ1 [20], Cy5-GluN2B (formerly known as NR2B) was used for PDZ2 and PDZ1-2 [21], and Cy5-CRIPT was used for PDZ3 [22] (Table S1). Competition with unlabeled versions of the reference ligands was used to validate the FP assay by comparison with the literature (Table S2).
# FP measurements were performed in black, flat bottom 384-well NBS microplates (Corning) on a Synergy H4 microplatereader (BioTek Instruments) equipped with a 620/40 nm excitation filter, a 680/30 nm emission filter, and a 660 nm dichroic mirror. Polarization values were corrected with blank samples and samples with fluorescent probe alone. At least 10 data points were measured for each curve, and each data point was measured in triplicate. 25 nM Cy5-labeled probe was used for each assay: Cy5-KIF1Bα for PDZ1, Cy5-GluN2B for PDZ2 and PDZ1-2, and Cy5-CRIPT for PDZ3. All FP measurements were performed in a buffer containing 10 mM HEPES pH 7.4, 150 mM NaCl, and 1% BSA and incubated at least 15 min at room temperature before reading. The signal was stable for more than an hour, showing that the reaction was at equilibrium.
# For the competition binding curves, probe was mixed with a constant concentration of PDZ protein corresponding to the K d and a twofold dilution series of unlabeled peptide in a total volume of 30 µl. The baseline was determined using a sample containing only probe. The IC50 was determined by fitting to a 1∶1 binding model: Y = Ymax − Ymax × X/(X+IC50). The K i was calculated from the IC50 and from the K d for the interaction between the PDZ protein and the probe as described previously.
row,Sequence,Interaction with PSD-95 using fluorescence polarization
1,"RDIDGMNKPV [κOR, synthetic peptide, C-terminal 10 aa of human κ opioid receptor (no PDZ motif) with N-terminal YDDR/DDR linker]",not to interact; also recorded: no interaction
2,"GVQPALGVGL [A2B, synthetic peptide, C-terminal 10 aa of human adenosine A2B receptor with N-terminal YDDR/DDR linker]",not to interact
3,"ETSEASYSGL [CXCR3, synthetic peptide, C-terminal 10 aa of human CXCR3 with N-terminal YDDR/DDR linker]",not to interact
4,"SSSVNVSSNL [CXCR1, synthetic peptide, C-terminal 10 aa of human CXCR1 with N-terminal YDDR/DDR linker]",not to interact
5,"QSPFPFPGRV [μOR-1B5, synthetic peptide, C-terminal 10 aa of human µOR-1B5 with N-terminal YDDR/DDR linker]",not to interact
6,"NDPESLESCF [5-HTR4(a), synthetic peptide, C-terminal 10 aa of human 5-HTR4(a) with N-terminal YDDR/DDR linker]",not to interact
7,"DRTNHQVRSL [μOR-1A, synthetic peptide, C-terminal 10 aa of human µOR-1A with N-terminal YDDR/DDR linker]",not to interact
8,"RDYTQSSSSL [mGlu5(b), synthetic peptide, C-terminal 10 aa of human mGlu5(b) with N-terminal YDDR/DDR linker]",not to interact
9,"EFKQNGDTSL [P2Y1, synthetic peptide, C-terminal 10 aa of human P2Y1 with N-terminal YDDR/DDR linker]",not to interact
10,"SDGPGGGAAA [δOR, synthetic peptide, C-terminal 10 aa of human δ opioid receptor with N-terminal YDDR/DDR linker]",not to interact
11,"SENATSLTTF [CXCR5, synthetic peptide, C-terminal 10 aa of human CXCR5 with N-terminal YDDR/DDR linker]",not to interact
12,"GHPLMDSTL [LPA2, synthetic C-tail peptide of human LPA2 with N-terminal YDDR/DDR linker]",not to interact
13,"TGEHEVSTGL [CCR5 Mouse, synthetic peptide, C-terminal 10 aa of mouse CCR5 with N-terminal YDDR/DDR linker]",not to interact
14,"ESESSSFHSS [CXCR4, synthetic peptide, C-terminal 10 aa of human CXCR4 with N-terminal YDDR/DDR linker]",not to interact
15,"ANGLMQTSKL [SSTR5, synthetic peptide, C-terminal 10 aa of human SSTR5 with N-terminal YDDR/DDR linker]",not to interact
16,"TGEQEISVGL [CCR5 Human, synthetic peptide, C-terminal 10 aa of human CCR5 with N-terminal YDDR/DDR linker]",not to interact
17,"QRERRQKSDW [μOR-1B2, synthetic peptide, C-terminal 10 aa of human µOR-1B2 with N-terminal YDDR/DDR linker]",not to interact
